From patent US20230192748A1 (DoubleRainbow Biosciences Inc., priority 2020, published 2023)
Converted amounts (≈) assume the structure as drawn. Each block holds one compound with its values, some of them ahead of it.

Columns and labels:
[1] = distilled water, 25° C.
Experimental: (§1) Afterwards, each sample was centrifuged at 12,000×g for 20 min. The supernatant of each sample was then filtered through a 0.45-μm membrane filter and the concentration of the compound in the supernatant, which is defined as the water-soluble component, was measured by its absorbance at 254 nm using HPLC, and its absolute solubility was calculated in reference to the concentration-absorbance standard curve.

[2] = test system: etoposide-resistant cell line; details: cited from earlier work
[3] = etoposide phosphate plus cisplatin; cited from earlier work
[4] = cited from earlier work
physchem = details: distilled water, 25 °C, thermodynamic from solid
Experimental: as §1

[5] = in vivo; cited from earlier work
[6] = aqueous solutions, 80° C., pH 5; cited from earlier work
[7] = test system: blood plasma proteins (primarily albumin); details: cited from earlier work

water solubility relative to etoposide [1]: 200 times
SMILES: COc1cc(C2c3cc4c(cc3C(OC3OC5COC(C)OC5C(OC5OC(CO)C(O)C(O)C5O)C3O)C3COC(=O)C23)OCO4)cc(OC)c1O (stereo not drawn)

SMILES: COc1cc([C@@H]2c3cc4c(cc3[C@@H](O[C@@H]3O[C@@H]5CO[C@@H](C)O[C@H]5[C@H](O)[C@H]3O)[C@H]3COC(=O)[C@H]23)OCO4)cc(OC)c1OC(=O)OCC1COC(C)(C)O1 (stereo partly drawn) [CAP7.1]
concentrations cytotoxic to an etoposide-resistant cell line [2]: nanomolar concentrations

SMILES: COc1cc([C@@H]2c3cc4c(cc3[C@@H](O[C@@H]3O[C@@H]5CO[C@@H](C)O[C@H]5[C@H](O)[C@H]3O)[C@H]3COC(=O)[C@H]23)OCO4)cc(OC)c1OP(=O)(O)O [Etoposide phosphate]
difference in PK/PD parameters or overall response rate versus etoposide plus cisplatin [3]: no statistically significant difference
aqueous solubility [4]: 20000 µg/mL

solubility at 12 h (physchem): 56 µg/mL (≈ 95.1 µM)
SMILES: COc1cc([C@@H]2c3cc4c(cc3[C@@H](O[C@@H]3O[C@@H]5CO[C@@H](C)O[C@H]5[C@H](O)[C@H]3O)[C@H]3COC(=O)[C@H]23)OCO4)cc(OC)c1O [etoposide, Etoposide]
half-life [5]: 4 to 11 h
solubility in aqueous solutions ([4]; 37° C.): 150 to 170 µg/mL
half life [6]: 0.643 h
bound to blood plasma proteins [7]: 97%
